row,melting point [°C],Compound
1,188.5,C[S+]([O-])c1c(C(N)=S)nn(-c2c(Cl)cc(C(F)(F)F)cc2Br)c1N (stereo not shown)
2,102,CC[S+]([O-])c1c(C(N)=S)nn(-c2c(Cl)cc(OC(F)(F)F)cc2Cl)c1N (stereo not shown)
3,167,CC[S+]([O-])c1c(C(N)=S)nn(-c2c(Cl)cc(C(F)(F)F)cc2Cl)c1N (stereo not shown)
4,231,CS(=O)(=O)c1c(C(N)=S)nn(-c2c(Cl)cc(C(F)(F)F)cc2Cl)c1N
5,192,C[S+]([O-])c1c(C(N)=S)nn(-c2c(Cl)cc(C(F)(F)F)cc2Cl)c1N (stereo not shown)
6,113.5,CC[S+]([O-])c1c(C(N)=S)nn(-c2c(Cl)cc(C(F)(F)F)cc2Br)c1N (stereo not shown)
7,182,NC(=S)c1nn(-c2c(Cl)cc(C(F)(F)F)cc2Cl)c(N)c1SC(F)(F)F
8,153.5,C[S+]([O-])c1c(C(N)=S)nn(-c2ccc(C(F)(F)F)cc2Cl)c1N (stereo not shown)
9,137,C[S+]([O-])c1c(C(N)=S)nn(-c2c(Cl)cc(OC(F)(F)F)cc2Cl)c1N (stereo not shown)
10,161,CSc1c(C(N)=S)nn(-c2c(Cl)cc(C(F)(F)F)cc2Cl)c1N
